Values after ≈ are worked out from the molar mass of the structure shown. Where two headings read alike, the source gives them in different places.
Columns and labels:
Conditions in all cases: Klebsiella pneumoniae
[1] = tested on: K. pneumoniae NVT1001 ΔramRΔompK35/36 mutant and its revertants; test: Etest MIC, ΔramRΔompK35/36 mutant and its revertants (Table 7); type: cell-based
[2] = tested on: K. pneumoniae NVT1001 and its ΔompK35/36 and/or ΔramR mutants; test: Etest MIC, OmpK35/36 loss and AcrAB-TolC overexpression (ΔramR) strains (Table 6); type: cell-based, Klebsiella pneumoniae
Outline: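 MICs were read by Etest strip following the manufacturer's instructions, and values falling between standard two-fold dilutions were rounded up to the next two-fold step. Ceftazidime and cefotaxime were also tested by CLSI broth microdilution and interpreted against CLSI 2017 breakpoints; cephalothin used CLSI 2015 and moxifloxacin EUCAST 2017.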

[3] = tested on: K. pneumoniae NVT1001 strains with carbapenemase plasmids; test: Etest MIC of β-lactams, OmpK35/36 loss, ΔramR and/or carbapenemase (Table 9); type: cell-based, Klebsiella pneumoniae
Outline: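 Cloned resistance genes in pACYC177 or pACYC184 were electroporated into K. pneumoniae NVT1001. MICs were determined by Etest and rounded up to the next two-fold value. Ceftazidime and cefotaxime against the blaOXA-48 construct were also tested by CLSI broth microdilution, with breakpoints from CLSI 2017 (cephalothin CLSI 2015, moxifloxacin EUCAST 2017).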

[4] = ΔramRΔompK35/36::ompK35/36 revertant
[5] = ΔramRΔompK35/36::ompK35 revertant
[6] = ΔramRΔompK35/36::ompK36 revertant
[7] = ΔramRΔompK35/36::ramR revertant
[8] = ΔramRΔompK35/36::ramR::ompK35/36 revertant
[9] = ΔramRΔompK35/36::ramR::ompK35 revertant
[10] = ΔramRΔompK35/36::ramR::ompK36 revertant
[11] = ΔramRΔ35/36, ΔramRΔompK35/36 mutant
[12] = IMP-8 on pACYC177, WT (NVT1001), read-out: MIC
[13] = IMP-8 on pACYC177, Δ35 (ΔompK35 mutant)
[14] = IMP-8 on pACYC177, Δ35/36 (ΔompK35/36 mutant)
[15] = IMP-8 on pACYC177, Δ36 (ΔompK36 mutant)
[16] = IMP-8 on pACYC177, ΔramR mutant
[17] = IMP-8 on pACYC177, ΔramRΔ35 (ΔramRΔompK35 mutant)
[18] = IMP-8 on pACYC177, ΔramRΔ35/36 (ΔramRΔompK35/36 mutant)
[19] = IMP-8 on pACYC177, ΔramRΔ36 (ΔramRΔompK36 mutant)
[20] = KPC-2 on pACYC177, WT (NVT1001), read-out: MIC
[21] = KPC-2 on pACYC177, Δ35 (ΔompK35 mutant)
[22] = KPC-2 on pACYC177, Δ35/36 (ΔompK35/36 mutant)
[23] = KPC-2 on pACYC177, Δ36 (ΔompK36 mutant)
[24] = KPC-2 on pACYC177, ΔramR mutant
[25] = KPC-2 on pACYC177, ΔramRΔ35 (ΔramRΔompK35 mutant)
[26] = KPC-2 on pACYC177, ΔramRΔ35/36 (ΔramRΔompK35/36 mutant)
[27] = KPC-2 on pACYC177, ΔramRΔ36 (ΔramRΔompK36 mutant)
[28] = KPC-3 on pACYC177, WT (NVT1001), read-out: MIC
[29] = KPC-3 on pACYC177, Δ35 (ΔompK35 mutant)
[30] = KPC-3 on pACYC177, Δ35/36 (ΔompK35/36 mutant)
[31] = KPC-3 on pACYC177, Δ36 (ΔompK36 mutant)
[32] = KPC-3 on pACYC177, ΔramR mutant
[33] = KPC-3 on pACYC177, ΔramRΔ35 (ΔramRΔompK35 mutant)
[34] = KPC-3 on pACYC177, ΔramRΔ35/36 (ΔramRΔompK35/36 mutant)
[35] = KPC-3 on pACYC177, ΔramRΔ36 (ΔramRΔompK36 mutant)
[36] = NDM-1 on pACYC177, WT (NVT1001), read-out: MIC
[37] = NDM-1 on pACYC177, Δ35 (ΔompK35 mutant)
[38] = NDM-1 on pACYC177, Δ35/36 (ΔompK35/36 mutant)
[39] = NDM-1 on pACYC177, Δ36 (ΔompK36 mutant)
[40] = NDM-1 on pACYC177, ΔramR mutant
[41] = NDM-1 on pACYC177, ΔramRΔ35 (ΔramRΔompK35 mutant)
[42] = NDM-1 on pACYC177, ΔramRΔ35/36 (ΔramRΔompK35/36 mutant)
[43] = NDM-1 on pACYC177, ΔramRΔ36 (ΔramRΔompK36 mutant)
[44] = OXA-48 on pACYC177, WT (NVT1001), read-out: MIC
[45] = OXA-48 on pACYC177, Δ35 (ΔompK35 mutant)
[46] = OXA-48 on pACYC177, Δ35/36 (ΔompK35/36 mutant)
[47] = OXA-48 on pACYC177, Δ36 (ΔompK36 mutant)
[48] = OXA-48 on pACYC177, ΔramR mutant
[49] = OXA-48 on pACYC177, ΔramRΔ35 (ΔramRΔompK35 mutant)
[50] = OXA-48 on pACYC177, ΔramRΔ35/36 (ΔramRΔompK35/36 mutant)
[51] = OXA-48 on pACYC177, ΔramRΔ36 (ΔramRΔompK36 mutant)
[52] = VIM-1 on pACYC177, WT (NVT1001), read-out: MIC
[53] = VIM-1 on pACYC177, Δ35 (ΔompK35 mutant)
[54] = VIM-1 on pACYC177, Δ35/36 (ΔompK35/36 mutant)
[55] = VIM-1 on pACYC177, Δ36 (ΔompK36 mutant)
[56] = VIM-1 on pACYC177, ΔramR mutant
[57] = VIM-1 on pACYC177, ΔramRΔ35 (ΔramRΔompK35 mutant)
[58] = VIM-1 on pACYC177, ΔramRΔ35/36 (ΔramRΔompK35/36 mutant)
[59] = VIM-1 on pACYC177, ΔramRΔ36 (ΔramRΔompK36 mutant)
[60] = no supplemental plasmid, WT (NVT1001), read-out: MIC
[61] = no supplemental plasmid, Δ35 (ΔompK35 mutant)
[62] = no supplemental plasmid, Δ35/36 (ΔompK35/36 mutant)
[63] = no supplemental plasmid, Δ36 (ΔompK36 mutant)
[64] = no supplemental plasmid, ΔramR mutant
[65] = no supplemental plasmid, ΔramRΔ35 (ΔramRΔompK35 mutant)
[66] = no supplemental plasmid, ΔramRΔ35/36 (ΔramRΔompK35/36 mutant)
[67] = no supplemental plasmid, ΔramRΔ36 (ΔramRΔompK36 mutant)

CO/N=C(\C(=O)N[C@@H]1C(=O)N2C(C(=O)[O-])=C(C[N+]3(C)CCCC3)CS[C@H]12)c1csc(N)n1 [Cefepime]
MIC [1, 4]: 0.5 µg/mL
MIC [1, 5]: 2 µg/mL
MIC [1, 6]: 0.5 µg/mL
MIC [1, 7]: 1 µg/mL
MIC [1, 8]: 0.06 µg/mL
MIC [1, 9]: 0.125 µg/mL
MIC [1, 10]: 0.125 µg/mL
MIC ([1]; ΔramRΔompK35/36 mutant): 2 µg/mL
MIC ([2]; WT, NVT1001, read-out: MIC): 0.06 µg/mL (≈ 0.125 µM)
MIC ([2]; Δ35, ΔompK35 mutant): 0.125 µg/mL (≈ 0.26 µM)
MIC ([2]; Δ35/36, ΔompK35/36 mutant): 1 µg/mL (≈ 2.08 µM)
MIC ([2]; Δ36, ΔompK36 mutant): 0.125 µg/mL (≈ 0.26 µM)
MIC ([2]; ΔramR mutant): 0.5 µg/mL (≈ 1.04 µM)
MIC ([2]; ΔramRΔ35, ΔramRΔompK35 mutant): 0.5 µg/mL (≈ 1.04 µM)
MIC [2, 11]: 2 µg/mL (≈ 4.16 µM)
MIC ([2]; ΔramRΔ36, ΔramRΔompK36 mutant): 4 µg/mL (≈ 8.32 µM)
MIC [3, 12]: 16 µg/mL
MIC [3, 13]: 32 µg/mL
MIC [3, 14]: > 256 µg/mL
MIC [3, 15]: 64 µg/mL
MIC [3, 16]: 32 µg/mL
MIC [3, 17]: 64 µg/mL
MIC [3, 18]: 128 µg/mL
MIC [3, 19]: 128 µg/mL
MIC [3, 20]: 64 µg/mL
MIC [3, 21]: 64 µg/mL
MIC [3, 22]: > 256 µg/mL
MIC [3, 23]: 64 µg/mL
MIC [3, 24]: 64 µg/mL
MIC [3, 25]: 64 µg/mL
MIC [3, 26]: > 256 µg/mL
MIC [3, 27]: > 256 µg/mL
MIC [3, 28]: 128 µg/mL
MIC [3, 29]: 128 µg/mL
MIC [3, 30]: > 256 µg/mL
MIC [3, 31]: 256 µg/mL
MIC [3, 32]: 128 µg/mL
MIC [3, 33]: 128 µg/mL
MIC [3, 34]: > 256 µg/mL
MIC [3, 35]: > 256 µg/mL
MIC [3, 36]: 32 µg/mL
MIC [3, 37]: 128 µg/mL
MIC [3, 38]: > 256 µg/mL
MIC [3, 39]: > 256 µg/mL
MIC [3, 40]: > 256 µg/mL
MIC [3, 41]: 256 µg/mL
MIC [3, 42]: > 256 µg/mL
MIC [3, 43]: > 256 µg/mL
MIC [3, 44]: 0.5 µg/mL
MIC [3, 45]: 1 µg/mL
MIC [3, 46]: 8 µg/mL
MIC [3, 47]: 1 µg/mL
MIC [3, 48]: 1 µg/mL
MIC [3, 49]: 1 µg/mL
MIC [3, 50]: 8 µg/mL
MIC [3, 51]: 8 µg/mL
MIC [3, 52]: 128 µg/mL
MIC [3, 53]: 256 µg/mL
MIC [3, 54]: > 256 µg/mL
MIC [3, 55]: > 256 µg/mL
MIC [3, 56]: > 256 µg/mL
MIC [3, 57]: > 256 µg/mL
MIC [3, 58]: > 256 µg/mL
MIC [3, 59]: > 256 µg/mL
MIC [3, 60]: 0.06 µg/mL
MIC [3, 61]: 0.125 µg/mL
MIC [3, 62]: 1 µg/mL
MIC [3, 63]: 0.125 µg/mL
MIC [3, 64]: 0.5 µg/mL
MIC [3, 65]: 0.5 µg/mL
MIC [3, 66]: 2 µg/mL
MIC [3, 67]: 4 µg/mL

C[C@@H](O)[C@H]1C(=O)N2C(C(=O)O)=C(S[C@@H]3CN[C@H](C(=O)Nc4cccc(C(=O)O)c4)C3)[C@H](C)[C@H]12 [Ertapenem]
MIC [1, 4]: 0.125 µg/mL
MIC [1, 5]: 4 µg/mL
MIC [1, 6]: 0.125 µg/mL
MIC [1, 7]: 1 µg/mL
MIC [1, 8]: 0.015 µg/mL
MIC [1, 9]: 0.03 µg/mL
MIC [1, 10]: 0.03 µg/mL
MIC ([1]; ΔramRΔompK35/36 mutant): 4 µg/mL
MIC ([2]; WT, NVT1001, read-out: MIC): 0.015 µg/mL (≈ 0.0315 µM)
MIC ([2]; Δ35, ΔompK35 mutant): 0.03 µg/mL (≈ 0.0631 µM)
MIC ([2]; Δ35/36, ΔompK35/36 mutant): 2 µg/mL (≈ 4.21 µM)
MIC ([2]; Δ36, ΔompK36 mutant): 0.03 µg/mL (≈ 0.0631 µM)
MIC ([2]; ΔramR mutant): 0.125 µg/mL (≈ 0.263 µM)
MIC ([2]; ΔramRΔ35, ΔramRΔompK35 mutant): 0.125 µg/mL (≈ 0.263 µM)
MIC [2, 11]: 4 µg/mL (≈ 8.41 µM)
MIC ([2]; ΔramRΔ36, ΔramRΔompK36 mutant): 4 µg/mL (≈ 8.41 µM)
MIC [3, 12]: 2 µg/mL
MIC [3, 13]: 4 µg/mL
MIC [3, 14]: > 32 µg/mL
MIC [3, 15]: 2 µg/mL
MIC [3, 16]: 4 µg/mL
MIC [3, 17]: 4 µg/mL
MIC [3, 18]: > 32 µg/mL
MIC [3, 19]: > 32 µg/mL
MIC [3, 20]: 32 µg/mL
MIC [3, 21]: 32 µg/mL
MIC [3, 22]: > 32 µg/mL
MIC [3, 23]: 32 µg/mL
MIC [3, 24]: > 32 µg/mL
MIC [3, 25]: > 32 µg/mL
MIC [3, 26]: > 32 µg/mL
MIC [3, 27]: > 32 µg/mL
MIC [3, 28]: 32 µg/mL
MIC [3, 29]: 32 µg/mL
MIC [3, 30]: > 32 µg/mL
MIC [3, 31]: 32 µg/mL
MIC [3, 32]: 32 µg/mL
MIC [3, 33]: 32 µg/mL
MIC [3, 34]: > 32 µg/mL
MIC [3, 35]: > 32 µg/mL
MIC [3, 36]: 32 µg/mL
MIC [3, 37]: > 32 µg/mL
MIC [3, 38]: > 32 µg/mL
MIC [3, 39]: > 32 µg/mL
MIC [3, 40]: > 32 µg/mL
MIC [3, 41]: > 32 µg/mL
MIC [3, 42]: > 32 µg/mL
MIC [3, 43]: > 32 µg/mL
MIC [3, 44]: 4 µg/mL
MIC [3, 45]: 8 µg/mL
MIC [3, 46]: > 32 µg/mL
MIC [3, 47]: 8 µg/mL
MIC [3, 48]: 8 µg/mL
MIC [3, 49]: 8 µg/mL
MIC [3, 50]: > 32 µg/mL
MIC [3, 51]: > 32 µg/mL
MIC [3, 52]: 2 µg/mL
MIC [3, 53]: 4 µg/mL
MIC [3, 54]: > 32 µg/mL
MIC [3, 55]: 2 µg/mL
MIC [3, 56]: 4 µg/mL
MIC [3, 57]: 4 µg/mL
MIC [3, 58]: > 32 µg/mL
MIC [3, 59]: > 32 µg/mL
MIC [3, 60]: 0.015 µg/mL
MIC [3, 61]: 0.03 µg/mL
MIC [3, 62]: 2 µg/mL
MIC [3, 63]: 0.03 µg/mL
MIC [3, 64]: 0.125 µg/mL
MIC [3, 65]: 0.125 µg/mL
MIC [3, 66]: 4 µg/mL
MIC [3, 67]: 4 µg/mL
